Experimental data taken from patent publication EP4800013A1, “PARG INHIBITOR” (Shanghai Qilu Pharmaceutical Research and Development …, priority 2023, dated 2025).

These molecules were tested against T1, PARG (Homo sapiens, UniProt Q86W56) (assay: Enzymatic inhibitory activity against PARG, HTRF assay). Conditions: HTRF; PARylated PARP1 protein as substrate; 60 minutes at room temperature; read-out: IC50 against PARG enzyme.
T1 construct: made in house
T1 sequence (Q86W56 whole entry): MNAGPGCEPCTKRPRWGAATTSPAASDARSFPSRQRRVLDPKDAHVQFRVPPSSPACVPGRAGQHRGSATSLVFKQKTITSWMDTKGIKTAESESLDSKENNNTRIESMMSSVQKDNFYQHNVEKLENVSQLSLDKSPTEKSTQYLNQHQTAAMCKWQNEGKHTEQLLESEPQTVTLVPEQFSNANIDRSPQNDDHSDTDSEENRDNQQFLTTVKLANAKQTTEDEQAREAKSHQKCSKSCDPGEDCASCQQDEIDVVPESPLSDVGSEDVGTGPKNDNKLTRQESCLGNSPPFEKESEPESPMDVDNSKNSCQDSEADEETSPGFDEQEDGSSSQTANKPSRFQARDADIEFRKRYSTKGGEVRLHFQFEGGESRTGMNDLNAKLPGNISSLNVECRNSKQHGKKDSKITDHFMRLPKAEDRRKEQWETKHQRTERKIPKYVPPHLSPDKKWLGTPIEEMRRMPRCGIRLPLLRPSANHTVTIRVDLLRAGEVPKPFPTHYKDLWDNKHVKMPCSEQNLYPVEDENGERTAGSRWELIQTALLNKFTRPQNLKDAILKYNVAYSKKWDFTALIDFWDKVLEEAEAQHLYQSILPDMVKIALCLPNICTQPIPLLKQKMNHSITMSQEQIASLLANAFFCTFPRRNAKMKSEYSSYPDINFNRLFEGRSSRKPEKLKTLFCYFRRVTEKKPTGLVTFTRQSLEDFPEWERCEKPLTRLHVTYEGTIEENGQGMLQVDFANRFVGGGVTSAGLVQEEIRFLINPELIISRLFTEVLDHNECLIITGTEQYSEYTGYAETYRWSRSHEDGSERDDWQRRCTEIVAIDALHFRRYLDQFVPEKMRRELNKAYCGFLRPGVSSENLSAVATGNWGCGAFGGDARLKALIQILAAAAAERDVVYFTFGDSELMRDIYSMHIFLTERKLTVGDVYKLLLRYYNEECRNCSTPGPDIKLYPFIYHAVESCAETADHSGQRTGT
Assay type: biochemical
Procedure, shortened: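 Purified PARG pre-incubated with compounds (top 10 µM, 3- to 5-fold dilutions, duplicates) 15 min at room temperature, then PARylated PARP1 substrate added for 60 min in Tris pH 7.4 buffer with DTT, EDTA/EGTA, KCl. HTRF (His-Tb/SA-XL665) read-out; IC50 by four-parameter logistic fit, normalised to DMSO and control-inhibitor wells.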
`CC(C)C(=O)N1CCN(c2cc(S(=O)(=O)NC3(C)CC3)cc3c2n(C(C)C)c(=O)n3-c2nnc(C(F)F)s2)CC1` [Compound A019] gave an IC50 of 18.1 nM.
In the case of `CC(C)S(=O)(=O)N1CCN(c2cc(S(=O)(=O)NC3(C)CC3)cc3c2n(C)c(=O)n3-c2nnc(C(F)F)s2)CC1` [Compound A023], the IC50 is reported as 1.5 nM.
In the case of `Cn1c(=O)n(-c2nnc(C(F)F)s2)c2cc(S(=O)(=O)NC3(C)CC3)cc(N3CCN(C(=O)N4CCCC4)CC3)c21` [Compound A027], the IC50 is reported as 3.8 nM.
Work on `COC(=O)N1CCN(c2cc(S(=O)(=O)NC3(C)CC3)cc3c2n(C)c(=O)n3-c2nnc(C(F)F)s2)CC1` [Compound A028] yielded an IC50 of 19 nM.
Work on `Cn1c(=O)n(-c2nnc(C(F)F)s2)c2cc(S(=O)(=O)NC3(C)CC3)cc(N3CCN(C(=O)C(C)(C)F)CC3)c21` [Compound A029] yielded an IC50 of 3 nM.
For `Cn1c(=O)n(-c2nnc(C(F)F)s2)c2cc(S(=O)(=O)NC3(C)CC3)cc(N3CCN(C(=O)C(C)(C)O)CC3)c21` [Compound A030], the IC50 was 18.2 nM.
`Cn1c(=O)n(-c2nnc(C(F)F)s2)c2cc(S(=O)(=O)NC3(CF)CC3)cc(N3CCNCC3)c21` [Compound A031] gave an IC50 of 35.2 nM.
In the case of `CN(C)C(=O)N1CCN(c2cc(S(=O)(=O)NC3(CF)CC3)cc3c2n(C)c(=O)n3-c2nnc(C(F)F)s2)CC1` [Compound A032], the IC50 is reported as 2.4 nM.
Molecule `CC(C)C(=O)N1CCN(c2cc(S(=O)(=O)NC3(CF)CC3)cc3c2n(C)c(=O)n3-c2nnc(C(F)F)s2)CC1` [Compound A033] has an IC50 of 4 nM.
With `CN(C)C(=O)N1CCN(c2cc(S(=O)(=O)NC3(C)COC3)cc3c2n(C)c(=O)n3-c2nnc(C(F)F)s2)CC1` [Compound A036] the IC50 was 6.8 nM.
`CC(C)C(=O)N1CCN(c2cc(S(=O)(=O)NC3(C)COC3)cc3c2n(C)c(=O)n3-c2nnc(C(F)F)s2)CC1` [Compound A037] was tested, and the IC50 was 6.8 nM.
`CN(C)C(=O)N1CC=C(c2cc(S(=O)(=O)NC3(C)CC3)cc3c2n(C)c(=O)n3-c2nnc(C(F)F)s2)CC1` [Compound A038] was tested, and the IC50 was 5.2 nM.
`CN(C)C(=O)N1CCC(c2cc(S(=O)(=O)NC3(C)CC3)cc3c2n(C)c(=O)n3-c2nnc(C(F)F)s2)CC1` [Compound A039] showed an IC50 of 3.5 nM.
Work on `Cn1ccnc1N1CCN(c2cc(S(=O)(=O)NC3(C)CC3)cc3c2n(C)c(=O)n3-c2nnc(C(F)F)s2)CC1` [Compound A040] yielded an IC50 of 5 nM.
In the case of `C=CCn1c(=O)n(-c2nnc(C(F)F)s2)c2cc(S(=O)(=O)NC3(C#N)CC3)cc(N3CCN(C(=O)N(C)C)CC3)c21` [Compound A041], the IC50 is reported as 4.4 nM.
For `[2H]C([2H])([2H])N(C(=O)N1CCN(c2cc(S(=O)(=O)NC3(C#N)CC3)cc3c2n(CC=C)c(=O)n3-c2nnc(C(F)F)s2)CC1)C([2H])([2H])[2H]` [Compound A042], the IC50 was 5.1 nM.
In the case of `CCn1c(=O)n(-c2nnc(C(F)F)s2)c2cc(S(=O)(=O)NC3(C#N)CC3)cc(N3CCN(C(=O)N(C)C)CC3)c21` [Compound A043], the IC50 is reported as 8 nM.
For `CC(C)n1c(=O)n(-c2nnc(C(F)F)s2)c2cc(S(=O)(=O)NC3(C#N)CC3)cc(N3CCN(C(=O)N(C)C)CC3)c21` [Compound A045], the IC50 was 13.9 nM.
`CC(C)n1c(=O)n(-c2nnc(C(F)F)s2)c2cc(S(=O)(=O)NC3(C#N)CC3)cc(N3CCN(S(=O)(=O)C(C)C)CC3)c21` [Compound A046] was tested, and the IC50 was 5.5 nM.
`CC(C)n1c(=O)n(-c2nnc(C(F)F)s2)c2cc(S(=O)(=O)NC3(C#N)CC3)cc(N3CCN(C(=O)C(C)(C)F)CC3)c21` [Compound A048] showed an IC50 of 34.8 nM.
Molecule `CC(C)n1c(=O)n(-c2nnc(C(F)F)s2)c2cc(S(=O)(=O)NC3(C#N)CC3)cc(N3CCN(C(=O)C(C)(C)O)CC3)c21` [Compound A049] has an IC50 of 15.7 nM.
With `CC(C)C(=O)N1CCN(c2cc(S(=O)(=O)NC3(C#N)CC3)cc3c2n(C(C)C)c(=O)n3-c2nnc(C(F)F)s2)CC1` [Compound A050] the IC50 was 22.5 nM.
`C=CCn1c(=O)n(-c2nnc(C(F)F)s2)c2cc(S(=O)(=O)NC3(C#N)CC3)cc(N3CCN(C(=O)C(C)C)CC3)c21` [Compound A051] gave an IC50 of 7.5 nM.
`C=CCn1c(=O)n(-c2nnc(C(F)F)s2)c2cc(S(=O)(=O)NC3(C#N)CC3)cc(N3CCN(S(=O)(=O)C(C)C)CC3)c21` [Compound A052] was tested, and the IC50 was 1.6 nM.
`C=CCn1c(=O)n(-c2nnc(C(F)F)s2)c2cc(S(=O)(=O)NC3(C#N)CC3)cc(N3CCN(C(=O)C(C)(C)O)CC3)c21` [Compound A053] gave an IC50 of 6.7 nM.

The molecules below were run on KURAMOCHI cells (assay: Inhibition of proliferation of KURAMOCHI cells (CellTiter-Glo, intracellular ATP)). Conditions: 168 h, incubated for 7 days, read-out: IC50 against KURAMOCHI cells.
Assay type: cell-based
Procedure, shortened: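 KURAMOCHI cells seeded at 4000/well, incubated overnight, then treated with 9-point 1:4 compound series from 10 µM (0.5% DMSO) for 7 days at 37°C, 5% CO2. Viability read by CellTiter-Glo luminescence; inhibition normalised to medium-only (100%) and DMSO (0%) controls, IC50 from variable-slope four-parameter fit.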
`CC(C)C(=O)N1CCN(c2cc(S(=O)(=O)NC3(C)CC3)cc3c2n(C(C)C)c(=O)n3-c2nnc(C(F)F)s2)CC1` [Compound A019] showed an IC50 of 16 nM.
Molecule `CC(C)S(=O)(=O)N1CCN(c2cc(S(=O)(=O)NC3(C)CC3)cc3c2n(C)c(=O)n3-c2nnc(C(F)F)s2)CC1` [Compound A023] has an IC50 of 4 nM.
Molecule `Cn1c(=O)n(-c2nnc(C(F)F)s2)c2cc(S(=O)(=O)NC3(C)CC3)cc(N3CCN(C(=O)N4CCCC4)CC3)c21` [Compound A027] has an IC50 of 5 nM.
For `COC(=O)N1CCN(c2cc(S(=O)(=O)NC3(C)CC3)cc3c2n(C)c(=O)n3-c2nnc(C(F)F)s2)CC1` [Compound A028], the IC50 was 48 nM.
Molecule `Cn1c(=O)n(-c2nnc(C(F)F)s2)c2cc(S(=O)(=O)NC3(C)CC3)cc(N3CCN(C(=O)C(C)(C)F)CC3)c21` [Compound A029] has an IC50 of 8 nM.
With `Cn1c(=O)n(-c2nnc(C(F)F)s2)c2cc(S(=O)(=O)NC3(C)CC3)cc(N3CCN(C(=O)C(C)(C)O)CC3)c21` [Compound A030] the IC50 was 10 nM.
Molecule `Cn1c(=O)n(-c2nnc(C(F)F)s2)c2cc(S(=O)(=O)NC3(CF)CC3)cc(N3CCNCC3)c21` [Compound A031] has an IC50 of 63 nM.
With `CN(C)C(=O)N1CCN(c2cc(S(=O)(=O)NC3(CF)CC3)cc3c2n(C)c(=O)n3-c2nnc(C(F)F)s2)CC1` [Compound A032] the IC50 was 5 nM.
`CC(C)C(=O)N1CCN(c2cc(S(=O)(=O)NC3(CF)CC3)cc3c2n(C)c(=O)n3-c2nnc(C(F)F)s2)CC1` [Compound A033] gave an IC50 of 9 nM.
`CN(C)C(=O)N1CCN(c2cc(S(=O)(=O)NC3(C)COC3)cc3c2n(C)c(=O)n3-c2nnc(C(F)F)s2)CC1` [Compound A036] was tested, and the IC50 was 12 nM.
In the case of `CC(C)C(=O)N1CCN(c2cc(S(=O)(=O)NC3(C)COC3)cc3c2n(C)c(=O)n3-c2nnc(C(F)F)s2)CC1` [Compound A037], the IC50 is reported as 14 nM.
`CN(C)C(=O)N1CC=C(c2cc(S(=O)(=O)NC3(C)CC3)cc3c2n(C)c(=O)n3-c2nnc(C(F)F)s2)CC1` [Compound A038] was tested, and the IC50 was 7 nM.
For `CN(C)C(=O)N1CCC(c2cc(S(=O)(=O)NC3(C)CC3)cc3c2n(C)c(=O)n3-c2nnc(C(F)F)s2)CC1` [Compound A039], the IC50 was 7 nM.
Molecule `Cn1ccnc1N1CCN(c2cc(S(=O)(=O)NC3(C)CC3)cc3c2n(C)c(=O)n3-c2nnc(C(F)F)s2)CC1` [Compound A040] has an IC50 of 9 nM.
For `C=CCn1c(=O)n(-c2nnc(C(F)F)s2)c2cc(S(=O)(=O)NC3(C#N)CC3)cc(N3CCN(C(=O)N(C)C)CC3)c21` [Compound A041], the IC50 was 11 nM.
`[2H]C([2H])([2H])N(C(=O)N1CCN(c2cc(S(=O)(=O)NC3(C#N)CC3)cc3c2n(CC=C)c(=O)n3-c2nnc(C(F)F)s2)CC1)C([2H])([2H])[2H]` [Compound A042] gave an IC50 of 6 nM.
Molecule `CCn1c(=O)n(-c2nnc(C(F)F)s2)c2cc(S(=O)(=O)NC3(C#N)CC3)cc(N3CCN(C(=O)N(C)C)CC3)c21` [Compound A043] has an IC50 of 11 nM.
`CC(C)n1c(=O)n(-c2nnc(C(F)F)s2)c2cc(S(=O)(=O)NC3(C#N)CC3)cc(N3CCN(C(=O)N(C)C)CC3)c21` [Compound A045] was tested, and the IC50 was 16 nM.
`CC(C)n1c(=O)n(-c2nnc(C(F)F)s2)c2cc(S(=O)(=O)NC3(C#N)CC3)cc(N3CCN(S(=O)(=O)C(C)C)CC3)c21` [Compound A046] was tested, and the IC50 was 8 nM.
Work on `CC(C)n1c(=O)n(-c2nnc(C(F)F)s2)c2cc(S(=O)(=O)NC3(C#N)CC3)cc(N3CCN(C(=O)C(C)(C)F)CC3)c21` [Compound A048] yielded an IC50 of 27 nM.
For `CC(C)n1c(=O)n(-c2nnc(C(F)F)s2)c2cc(S(=O)(=O)NC3(C#N)CC3)cc(N3CCN(C(=O)C(C)(C)O)CC3)c21` [Compound A049], the IC50 was 50 nM.
`CC(C)C(=O)N1CCN(c2cc(S(=O)(=O)NC3(C#N)CC3)cc3c2n(C(C)C)c(=O)n3-c2nnc(C(F)F)s2)CC1` [Compound A050] was tested, and the IC50 was 20 nM.
`C=CCn1c(=O)n(-c2nnc(C(F)F)s2)c2cc(S(=O)(=O)NC3(C#N)CC3)cc(N3CCN(C(=O)C(C)C)CC3)c21` [Compound A051] showed an IC50 of 12 nM.
Work on `C=CCn1c(=O)n(-c2nnc(C(F)F)s2)c2cc(S(=O)(=O)NC3(C#N)CC3)cc(N3CCN(S(=O)(=O)C(C)C)CC3)c21` [Compound A052] yielded an IC50 of 2 nM.
Molecule `C=CCn1c(=O)n(-c2nnc(C(F)F)s2)c2cc(S(=O)(=O)NC3(C#N)CC3)cc(N3CCN(C(=O)C(C)(C)O)CC3)c21` [Compound A053] has an IC50 of 37 nM.
